Source: US12187762B2, “Dithiolsaccharide mucolytic agents and uses thereof” (The Regents of the University of California, priority 2018, dated 2025)
“Also recorded” adds a separate entry of the source.

Assays:
[1] = Cone-and-plate rheology of elastic modulus (G′) in thiolated hydrogel substrate; details: for concentration needed to cause a 40% decrease in the G′ of the hydrogel (ΔG′=−40%): 30 min incubation, dose response 0.5-10 mM
Description: 2.2. Preparation of thiolated hyaluronic acid hydrogel as a model substrate: Thiolated hyaluronic acid hydrogel (Glycosil®, ESI-BIO) was solubilized in 10% DMSO/75 mM NaCl/sodium phosphate pH 7.4 buffer, prepared using degassed water. Aliquots of 250 microliter of gel solution were distributed to 1.5 ml centrifuge tubes, sealed, and incubated overnight (˜18 hours) at room temperature to allow for slow oxidation and cross-linking of the hydrogel. Gels formed by this protocol typically yielded elastic moduli of 20-30 Pa, measured by cone-and-plate rheology.
2.3. Rheological measurements: A rheometer was employed to determine the effect of the compounds disclosed herein on the elastic modulus (G′) of ex vivo human sputum or model hydrogel substrate. The terms “elastic modulus”, G′, and the like refer to the elastic modulus as known in the art. Rheological measurements were made with AR2000 or DHR cone-and-plate rheometer (TA instruments), as known in the art. For sputum samples, ˜0.8 mL was used per assay, with 40 mm 2° geometry. For thiolated hydrogel samples, 0.25 mL was used per assay, with 40 mm ½° geometry. For timesweep recordings, a solvent trap with water as solvent was employed to minimize drying. Test compounds were dissolved in water and added at 10% v/v, to result in the final concentration of interest in the sample. The effect of test compound was measured by taking measurements every 2 min, for a period of 30 min. Normalized ratio % G′ was calculated by dividing the post treatment measurement of G′ at particular timepoint by pretreatment measurement of G′. Percent change in elastic modulus (% ΔG′) was calculated by comparing the measurement at 30 min to the initial pretreatment baseline.
Rheological measurements with Compound 1, Compound 5, Compound 9 and N-acetylcysteine at concentrations between 0.5-10 mM were conducted in order to understand the dose dependence of mucolytic efficacy on concentration of the dithiol test agents (FIG. 3). Effective concentration that causes 40% change in G′ for each test agent was determined. All dithiols tested cause 40% change in G′ at concentrations <1 mM, while NAC requires ˜8-10× higher dose to achieve the same mucolytic effect.
Mucolytic efficacy data was collected in cross-linked thiolated hydrogel model system for multiple enabled dithiolsaccharide compounds and N-acetylcysteine at 5 mM.

C57BL/6 mice = experiment: In vivo safety assessment, mouse intranasal (pulmonary) delivery model
Description: Body weights were recorded on days 1, 8 and 15. On day 15, BAL was performed and used for total and differential cell counts. Mice were euthanized on day 15, and whole lung was fixed in 10% formalin, embedded in paraffin, sectioned and H&E stained for subsequent injury scoring by board-certified lung pathologist (Table 1B provides scoring criteria). Scoring was done blindly. Sera were obtained from blood collected by cardiac puncture and tested for renal and metabolic function outcomes.
Table 1. […] Safety outcomes in mouse pulmonary delivery model (A). […] Outcome measures of safety included body weight, renal function tests, measures of lung injury in bronchoalveolar lavage (BAL), and histologic appearance of tissue sections from formalin-fixed and paraffin-embedded lungs.

[2] = tested on: primary human airway epithelial cells (AECs); experiment: G6PD release cytotoxicity assay in airway epithelial cells at air-liquid interface; assay type: cell-based; details: Compound 1 disodium salt, apical exposure 1 hr at 37° C. at 5, 25 and 50 mM, 6 hr recovery; compared with PBS control
Description: Briefly, primary tracheobronchial epithelial cells from ten donors were expanded in culture and differentiated at air-liquid interface for 21 days. Detailed cell culture protocols for airway epithelial cells can be found in Lachowicz-Scroggins et al, Cell Discov, 4, Article 7, 2018 and Widdicombe et al, Biotechniques, 39, 249-255, 2005. Compound 1 (disodium salt) was dissolved in PBS, added to apical surface of the cells at 5, 25 and 50 mM and left for 1 hr at 37° C. PBS was negative control. The apical and basolateral surfaces were washed with PBS, fresh media was added to basolateral side for 6 hr recovery period and collected for G6PD measurements. One control filter was harvested for full lysis with NP-40 lysis buffer to measure total G6PD content in cell lysates.
G6PD (glucose 6-phosphase dehydrogenase) release is a common method of assessing the extent of cellular damage or death. G6PD was measured using Vybrant® Cytotoxicity Assay Kit (ThermoFisher Scientific) and expressed as percent released relative to the total G6PD content.

[3] = mean ± SEM, BAL on day 15, intranasal 30 μL, 25 mM, 10 doses
[4] = mean ± SEM, serum, intranasal 30 μL, 25 mM, 10 doses

## CO[C@]1(CS)O[C@H](CS)C(O)C1O (stereo partly drawn) [Compound 9, Methyl-1,6-dithio-1,6-dideoxy-β-D-fructofuranoside]
[1]
  concentration needed to cause a 40% decrease in the G′ of the hydrogel (ΔG′=−40%): 0.7 mM

## OC1C(O)[C@H](O)C(CS)O[C@@H]1O[C@H]1OC(CS)[C@@H](O)C(O)C1O (stereo partly drawn) [Compound 5, 6,6′-dithio-6,6′-dideoxy-α,α-trehalose]
[1]
  concentration needed to cause a 40% decrease in the G′ of the hydrogel (ΔG′=−40%): 1.0 mM

## CC(=O)N[C@@H](CS)C(=O)O [NAC, N-acetylcysteine, reference compound]
[1]
  concentration needed to cause a 40% decrease in the G′ of the hydrogel (ΔG′=−40%): 8 mM
[1]; fold higher dose than dithiols
  dose of NAC relative to dithiols needed to achieve the same mucolytic effect (40% change in G′): 8-10 ×

## OC1C(O)[C@H](S)OC(CS)[C@@H]1O (stereo partly drawn) [Compound 1, 1,6-dithio-6-deoxy-β-D-galactopyranose]
C57BL/6 mice; intranasal 30 μL of 25 mM daily, 10 doses over 2 weeks, N=10 mice
  systemic or lung toxicity compared to control saline: did not cause any discernible systemic or lung toxicity
C57BL/6 mice; [3]
  BAL Eosinophil %: 0 ± 0%
  BAL Lymphocyte %: 0 ± 0.1%
  BAL Macrophage %: 100 ± 0.1%
  BAL Neutrophil %: 0 ± 0%
  BAL total cell count: (37.3 ± 7) × 10^4
C57BL/6 mice; mean ± SEM, blinded histology score 0-4 per Table 1B, day 15, intranasal 30 μL, 25 mM, 10 doses
  Lung Injury Score: 0.4 ± 0.16
C57BL/6 mice; mean ± SEM, intranasal 30 μL, 25 mM, 10 doses over 2 weeks
  Body weight: 18.6 ± 0.32 g
C57BL/6 mice; [4]
  Blood urea nitrogen (renal function test): 25 ± 1.3 mg/dL
  Creatinine (renal function test): 0.15 ± 0.01 mg/dL
[2]
  % release of G6PD (cell toxicity): minimal and similar to that of the Phosphate Buffered Saline (PBS) control; also recorded: low and similar to the PBS control
[1]
  concentration needed to cause a 40% decrease in the G′ of the hydrogel (ΔG′=−40%): 0.7 mM
